What was measured:
[1] = biological target: Polycomb protein SUZ12 (Homo sapiens) (UniProt Q15022); settings: at 1 µM
[2] = biological target: Serine/threonine-protein kinase PAK 6 (Homo sapiens) (UniProt Q9NQU5); assay: Selectivity interaction (KinomeScan (DiscoverX)) EUB0000229b PAK6; settings: at 10 µM
[3] = biological target: LIM domain kinase 2 (Homo sapiens) (UniProt P53671); assay: Selectivity interaction (KinomeScan (DiscoverX)) EUB0001079a LIMK2; settings: at 1 µM
[4] = biological target: Mitogen-activated protein kinase kinase kinase kinase 4 (Homo sapiens, UniProt O95819); assay: Selectivity interaction (SelectScreen Kinase Profiling (Thermo Fisher Scientific)) EUB0001558a MAP4K4; settings: at 1 µM
[5] = biological target: Phosphatidylinositol 4-kinase alpha (Homo sapiens, UniProt P42356); assay: Selectivity interaction (Kinase panel (KiNativ target engagement assay in Jurkat cells)) EUB0001635a PI4KA; assay type: cell-based; settings: Selectivity number of off-targets 0.0, Selectivity number of targets 233.0, Source Knowledge https://www.sciencedirect.com/science/article/pii/S2451945619300674?via%3Dihub, at 1 µM
Phosphatidylinositol 4-kinase alpha, sequence (P42356 whole entry, looked up, canonical isoform): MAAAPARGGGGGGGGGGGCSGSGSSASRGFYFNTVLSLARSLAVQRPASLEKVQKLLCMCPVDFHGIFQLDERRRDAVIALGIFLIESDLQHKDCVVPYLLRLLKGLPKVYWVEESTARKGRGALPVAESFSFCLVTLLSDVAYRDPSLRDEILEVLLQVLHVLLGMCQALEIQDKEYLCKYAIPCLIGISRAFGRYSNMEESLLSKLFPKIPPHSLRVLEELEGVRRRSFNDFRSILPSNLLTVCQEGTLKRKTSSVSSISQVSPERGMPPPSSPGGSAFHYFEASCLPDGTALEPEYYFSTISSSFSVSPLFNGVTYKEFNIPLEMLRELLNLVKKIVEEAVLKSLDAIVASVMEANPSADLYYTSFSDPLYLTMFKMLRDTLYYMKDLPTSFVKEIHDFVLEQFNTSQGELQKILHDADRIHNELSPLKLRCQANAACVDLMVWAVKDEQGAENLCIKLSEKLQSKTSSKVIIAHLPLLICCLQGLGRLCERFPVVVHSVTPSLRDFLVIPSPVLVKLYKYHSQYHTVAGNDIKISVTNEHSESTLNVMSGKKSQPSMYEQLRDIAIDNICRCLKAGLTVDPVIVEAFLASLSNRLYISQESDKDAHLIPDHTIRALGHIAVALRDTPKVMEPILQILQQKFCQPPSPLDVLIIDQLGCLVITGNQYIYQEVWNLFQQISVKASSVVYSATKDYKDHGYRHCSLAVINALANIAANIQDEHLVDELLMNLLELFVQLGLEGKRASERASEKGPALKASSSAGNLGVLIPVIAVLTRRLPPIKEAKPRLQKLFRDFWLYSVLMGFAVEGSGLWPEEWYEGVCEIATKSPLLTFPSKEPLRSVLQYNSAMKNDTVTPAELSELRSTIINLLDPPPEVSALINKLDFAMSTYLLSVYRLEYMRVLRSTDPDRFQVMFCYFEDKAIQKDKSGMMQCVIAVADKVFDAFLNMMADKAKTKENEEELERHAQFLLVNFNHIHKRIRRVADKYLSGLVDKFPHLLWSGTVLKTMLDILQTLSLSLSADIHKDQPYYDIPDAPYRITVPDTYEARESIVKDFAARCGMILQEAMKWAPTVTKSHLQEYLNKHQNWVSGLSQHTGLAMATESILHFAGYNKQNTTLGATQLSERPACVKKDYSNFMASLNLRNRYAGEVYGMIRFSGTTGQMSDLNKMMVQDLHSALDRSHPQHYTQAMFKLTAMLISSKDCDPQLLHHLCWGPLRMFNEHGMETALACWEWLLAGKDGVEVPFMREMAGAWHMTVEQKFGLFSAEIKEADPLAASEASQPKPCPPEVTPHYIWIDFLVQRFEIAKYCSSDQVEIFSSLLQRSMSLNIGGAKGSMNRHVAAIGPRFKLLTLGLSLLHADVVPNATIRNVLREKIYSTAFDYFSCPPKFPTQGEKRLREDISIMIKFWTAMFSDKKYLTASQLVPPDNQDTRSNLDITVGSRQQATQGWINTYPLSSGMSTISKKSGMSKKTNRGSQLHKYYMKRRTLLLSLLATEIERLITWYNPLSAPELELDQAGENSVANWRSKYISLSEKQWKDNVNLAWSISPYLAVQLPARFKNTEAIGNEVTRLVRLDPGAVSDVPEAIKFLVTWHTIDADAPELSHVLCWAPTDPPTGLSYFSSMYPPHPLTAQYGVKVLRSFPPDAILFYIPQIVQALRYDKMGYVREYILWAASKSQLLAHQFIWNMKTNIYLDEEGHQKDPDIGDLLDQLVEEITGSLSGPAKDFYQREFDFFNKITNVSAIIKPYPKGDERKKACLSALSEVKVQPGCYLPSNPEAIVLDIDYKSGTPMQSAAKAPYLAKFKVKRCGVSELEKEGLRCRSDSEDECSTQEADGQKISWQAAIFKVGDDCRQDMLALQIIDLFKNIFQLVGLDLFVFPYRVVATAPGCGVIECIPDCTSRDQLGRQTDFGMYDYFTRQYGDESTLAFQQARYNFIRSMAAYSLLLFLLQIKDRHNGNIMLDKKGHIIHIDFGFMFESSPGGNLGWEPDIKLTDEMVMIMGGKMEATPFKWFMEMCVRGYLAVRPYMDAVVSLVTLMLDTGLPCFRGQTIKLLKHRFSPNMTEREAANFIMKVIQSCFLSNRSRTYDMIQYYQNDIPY

[6] = biological target: Phosphorylase b kinase gamma catalytic chain, skeletal muscle/heart isoform (Homo sapiens) (UniProt Q16816); assay: Selectivity interaction (KinomeScan (DiscoverX)) EUB0000595a PHKG1; settings: at 10 µM
[7] = biological target: Serine/threonine-protein kinase Nek4 (Homo sapiens) (UniProt P51957); assay: Selectivity interaction (Ambit KINOMEscan and KiNATiv profiling in Jurkat cells) EUB0000090b NEK4; assay type: cell-based; settings: at 1 µM
[8] = biological target: Misshapen-like kinase 1 (Homo sapiens, UniProt Q8N4C8); assay: Selectivity interaction (KinomeScan (DiscoverX)) EUB0000045b MINK1
Misshapen-like kinase 1, sequence (Q8N4C8 whole entry, looked up): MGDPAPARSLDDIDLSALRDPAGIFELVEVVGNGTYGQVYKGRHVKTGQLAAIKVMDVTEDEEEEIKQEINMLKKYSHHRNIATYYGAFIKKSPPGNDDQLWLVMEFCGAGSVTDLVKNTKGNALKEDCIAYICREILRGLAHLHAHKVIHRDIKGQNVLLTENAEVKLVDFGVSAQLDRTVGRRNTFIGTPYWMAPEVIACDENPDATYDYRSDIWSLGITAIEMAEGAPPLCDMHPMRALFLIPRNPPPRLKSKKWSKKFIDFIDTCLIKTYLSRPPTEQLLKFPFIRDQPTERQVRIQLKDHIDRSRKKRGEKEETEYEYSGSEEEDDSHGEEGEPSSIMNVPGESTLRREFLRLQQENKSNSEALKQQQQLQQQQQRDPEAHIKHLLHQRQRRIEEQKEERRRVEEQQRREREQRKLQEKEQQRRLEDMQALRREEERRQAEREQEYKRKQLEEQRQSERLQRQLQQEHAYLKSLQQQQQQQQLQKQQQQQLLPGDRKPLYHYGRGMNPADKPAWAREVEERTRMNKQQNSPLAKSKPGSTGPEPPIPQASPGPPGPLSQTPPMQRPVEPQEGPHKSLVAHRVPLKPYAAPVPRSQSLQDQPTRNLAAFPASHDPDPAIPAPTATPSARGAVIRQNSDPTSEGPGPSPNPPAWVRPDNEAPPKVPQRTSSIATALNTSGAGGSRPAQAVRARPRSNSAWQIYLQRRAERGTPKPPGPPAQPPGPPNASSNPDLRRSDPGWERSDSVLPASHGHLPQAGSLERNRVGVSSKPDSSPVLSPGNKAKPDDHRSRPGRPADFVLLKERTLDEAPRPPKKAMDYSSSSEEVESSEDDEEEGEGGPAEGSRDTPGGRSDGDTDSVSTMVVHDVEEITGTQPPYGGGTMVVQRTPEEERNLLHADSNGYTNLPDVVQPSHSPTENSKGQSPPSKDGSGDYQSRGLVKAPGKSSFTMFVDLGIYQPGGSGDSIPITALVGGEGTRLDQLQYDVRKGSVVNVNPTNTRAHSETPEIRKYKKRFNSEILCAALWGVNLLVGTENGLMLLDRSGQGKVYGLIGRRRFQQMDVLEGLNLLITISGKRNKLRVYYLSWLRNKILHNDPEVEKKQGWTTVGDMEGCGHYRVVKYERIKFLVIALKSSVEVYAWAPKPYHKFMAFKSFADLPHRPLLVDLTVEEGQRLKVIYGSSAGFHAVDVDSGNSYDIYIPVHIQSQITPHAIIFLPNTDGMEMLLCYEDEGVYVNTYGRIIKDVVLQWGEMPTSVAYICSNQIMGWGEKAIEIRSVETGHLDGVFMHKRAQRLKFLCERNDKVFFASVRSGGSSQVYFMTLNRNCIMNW

[9] = biological target: Proto-oncogene tyrosine-protein kinase ROS (Homo sapiens) (UniProt P08922); assay: Selectivity interaction (KinomeScan (DiscoverX)) EUB0000618a ROS1; settings: at 10 µM
[10] = biological target: Serine/threonine-protein kinase PAK 6 (Homo sapiens) (UniProt Q9NQU5); assay: Selectivity interaction (KinomeScan (DiscoverX)) EUB0000618a PAK6; settings: at 10 µM
[11] = biological target: Mitogen-activated protein kinase kinase kinase kinase 1 (Homo sapiens) (UniProt Q92918); assay: Selectivity interaction (ActivX KiNativ screen (ex vivo kinase selectivity in human PBMCs)) EUB0001619a MAP4K1; assay type: cell-based; settings: PBMC, at 1 µM
[12] = biological target: T1, Rhodopsin kinase GRK7 (Homo sapiens) (UniProt Q8WTQ7); assay: Selectivity interaction (KinomeScan (DiscoverX)) EUB0001619a GRK7; settings: at 1 µM
T1 sequence (whole entry): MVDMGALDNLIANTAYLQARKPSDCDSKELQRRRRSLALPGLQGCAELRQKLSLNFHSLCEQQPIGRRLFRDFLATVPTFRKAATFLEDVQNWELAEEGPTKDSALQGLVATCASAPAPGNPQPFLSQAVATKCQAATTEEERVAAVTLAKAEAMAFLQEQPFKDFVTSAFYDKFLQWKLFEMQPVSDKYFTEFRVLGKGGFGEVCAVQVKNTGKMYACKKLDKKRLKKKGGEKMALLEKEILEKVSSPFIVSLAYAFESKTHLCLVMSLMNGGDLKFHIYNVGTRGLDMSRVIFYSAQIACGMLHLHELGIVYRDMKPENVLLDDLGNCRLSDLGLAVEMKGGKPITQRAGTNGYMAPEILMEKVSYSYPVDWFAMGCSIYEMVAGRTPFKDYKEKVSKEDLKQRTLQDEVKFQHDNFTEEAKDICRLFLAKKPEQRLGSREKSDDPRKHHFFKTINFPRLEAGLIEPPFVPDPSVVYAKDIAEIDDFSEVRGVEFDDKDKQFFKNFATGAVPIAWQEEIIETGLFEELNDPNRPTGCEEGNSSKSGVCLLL

[13] = biological target: T2, Muscle, skeletal receptor tyrosine-protein kinase (Homo sapiens) (UniProt O15146); assay: Selectivity interaction (KinomeScan (DiscoverX)) EUB0001619a MUSK; settings: at 1 µM
T2 sequence (whole entry): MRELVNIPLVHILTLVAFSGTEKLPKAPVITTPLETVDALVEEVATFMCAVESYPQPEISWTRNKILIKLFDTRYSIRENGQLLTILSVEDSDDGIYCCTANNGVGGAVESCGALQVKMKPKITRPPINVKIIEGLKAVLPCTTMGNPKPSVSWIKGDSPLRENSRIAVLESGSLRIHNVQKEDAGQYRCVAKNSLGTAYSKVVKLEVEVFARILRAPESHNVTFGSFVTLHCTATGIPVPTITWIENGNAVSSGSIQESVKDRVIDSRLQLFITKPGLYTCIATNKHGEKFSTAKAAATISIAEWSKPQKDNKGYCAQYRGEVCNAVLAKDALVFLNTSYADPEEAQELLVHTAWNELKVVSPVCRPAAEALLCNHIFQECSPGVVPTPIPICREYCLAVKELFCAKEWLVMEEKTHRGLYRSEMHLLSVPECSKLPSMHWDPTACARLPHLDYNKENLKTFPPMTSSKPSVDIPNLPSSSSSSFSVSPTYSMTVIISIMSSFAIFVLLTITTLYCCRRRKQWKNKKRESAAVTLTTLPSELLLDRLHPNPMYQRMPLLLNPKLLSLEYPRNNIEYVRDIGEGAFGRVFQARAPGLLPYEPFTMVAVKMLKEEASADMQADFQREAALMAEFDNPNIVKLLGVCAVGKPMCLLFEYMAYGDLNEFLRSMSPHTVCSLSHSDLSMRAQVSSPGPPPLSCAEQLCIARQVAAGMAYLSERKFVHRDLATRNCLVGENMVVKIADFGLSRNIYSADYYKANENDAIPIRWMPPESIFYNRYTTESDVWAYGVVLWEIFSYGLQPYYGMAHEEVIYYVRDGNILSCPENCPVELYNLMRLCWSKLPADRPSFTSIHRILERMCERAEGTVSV

[14] = biological target: T3, Serine/threonine-protein kinase Sgk2 (Homo sapiens) (UniProt Q9HBY8); assay: Selectivity interaction (Upstate Kinase Profiler service (Millipore)) EUB0000056c SGK2; settings: at 1 µM
T3 sequence (whole entry): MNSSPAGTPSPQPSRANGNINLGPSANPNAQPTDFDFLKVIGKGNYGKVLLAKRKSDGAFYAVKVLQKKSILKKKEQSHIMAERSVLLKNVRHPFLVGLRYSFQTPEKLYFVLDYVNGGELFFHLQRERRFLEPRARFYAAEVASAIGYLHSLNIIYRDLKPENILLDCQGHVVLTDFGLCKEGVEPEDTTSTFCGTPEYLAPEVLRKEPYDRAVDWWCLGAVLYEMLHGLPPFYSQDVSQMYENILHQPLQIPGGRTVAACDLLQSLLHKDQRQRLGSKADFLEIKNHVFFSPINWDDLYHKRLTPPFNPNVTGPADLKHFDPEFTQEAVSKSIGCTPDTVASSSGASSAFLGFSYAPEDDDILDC

[15] = biological target: Protein-arginine deiminase type-4 (Homo sapiens, UniProt Q9UM07); assay: Selectivity interaction (Fluorescence polarization ligand binding assay (2 mM calcium)) EUB0000266bCl PADI4
[16] = biological target: Death-associated protein kinase 2 (Homo sapiens) (UniProt Q9UIK4); assay: Selectivity interaction (ProQinase) EUB0000171b DAPK2
Death-associated protein kinase 2 (Homo sapiens), sequence (Q9UIK4 whole entry, looked up): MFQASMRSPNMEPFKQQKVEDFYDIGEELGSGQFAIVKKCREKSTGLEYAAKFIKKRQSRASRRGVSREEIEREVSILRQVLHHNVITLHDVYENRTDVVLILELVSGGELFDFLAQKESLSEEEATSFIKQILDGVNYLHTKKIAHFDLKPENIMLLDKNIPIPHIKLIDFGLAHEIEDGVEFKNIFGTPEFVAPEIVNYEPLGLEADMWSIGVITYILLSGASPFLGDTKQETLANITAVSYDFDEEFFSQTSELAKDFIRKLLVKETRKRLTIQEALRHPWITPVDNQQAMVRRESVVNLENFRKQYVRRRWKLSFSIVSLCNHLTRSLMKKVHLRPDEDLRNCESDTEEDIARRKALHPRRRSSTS

Serine/threonine-protein kinase PAK 6 (Homo sapiens), sequence (Q9NQU5 whole entry, looked up, the tested form may be a part): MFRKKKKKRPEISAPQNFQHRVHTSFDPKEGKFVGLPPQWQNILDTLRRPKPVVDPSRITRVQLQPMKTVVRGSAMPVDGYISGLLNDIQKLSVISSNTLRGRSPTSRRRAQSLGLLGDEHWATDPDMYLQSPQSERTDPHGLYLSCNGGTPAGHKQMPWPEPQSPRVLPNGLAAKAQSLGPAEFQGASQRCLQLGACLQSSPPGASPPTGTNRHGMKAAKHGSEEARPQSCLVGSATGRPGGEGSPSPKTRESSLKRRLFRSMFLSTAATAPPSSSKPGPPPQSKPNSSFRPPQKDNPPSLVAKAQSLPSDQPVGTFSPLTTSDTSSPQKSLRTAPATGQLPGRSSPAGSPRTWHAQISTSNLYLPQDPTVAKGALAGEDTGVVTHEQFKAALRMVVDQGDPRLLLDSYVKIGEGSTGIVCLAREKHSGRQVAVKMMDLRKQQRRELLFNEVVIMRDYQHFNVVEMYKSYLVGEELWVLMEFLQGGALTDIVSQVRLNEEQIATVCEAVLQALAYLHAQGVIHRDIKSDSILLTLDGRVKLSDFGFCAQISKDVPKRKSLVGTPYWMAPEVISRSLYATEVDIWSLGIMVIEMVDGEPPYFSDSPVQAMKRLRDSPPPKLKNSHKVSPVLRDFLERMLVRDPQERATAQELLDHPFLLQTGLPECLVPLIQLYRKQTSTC
LIM domain kinase 2 (Homo sapiens), sequence (P53671 whole entry, looked up, the tested form may be a part): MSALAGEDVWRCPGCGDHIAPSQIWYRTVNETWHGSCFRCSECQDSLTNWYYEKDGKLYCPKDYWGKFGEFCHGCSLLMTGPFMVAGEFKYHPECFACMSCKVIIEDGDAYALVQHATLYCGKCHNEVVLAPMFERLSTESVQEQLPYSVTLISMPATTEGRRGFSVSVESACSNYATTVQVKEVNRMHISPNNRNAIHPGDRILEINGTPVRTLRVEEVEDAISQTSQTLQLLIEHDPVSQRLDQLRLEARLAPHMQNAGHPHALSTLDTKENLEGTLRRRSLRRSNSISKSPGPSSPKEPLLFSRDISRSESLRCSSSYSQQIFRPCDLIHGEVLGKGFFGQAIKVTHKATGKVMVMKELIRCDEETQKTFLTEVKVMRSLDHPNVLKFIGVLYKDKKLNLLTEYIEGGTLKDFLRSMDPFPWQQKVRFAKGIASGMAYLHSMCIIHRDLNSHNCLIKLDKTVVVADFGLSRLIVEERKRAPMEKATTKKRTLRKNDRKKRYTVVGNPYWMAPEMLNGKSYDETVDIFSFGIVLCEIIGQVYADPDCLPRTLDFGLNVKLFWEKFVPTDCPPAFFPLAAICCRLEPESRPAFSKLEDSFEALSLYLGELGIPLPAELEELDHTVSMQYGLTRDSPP

## CNCCN1CCC(c2cc(CN(C)C(=O)c3cccc(Oc4ccccc4)c3)ccn2)CC1
[1]
  % activity: > 90%

## COc1cc(N(C)c2ccnc3ccc(C(F)(F)F)cc23)cc(OC)c1OC
[2]
  % binding: 96%

## Nc1cnc(N2CCc3cc(S(=O)(=O)Nc4c(F)cc(Cl)cc4F)cc(N4CCCC4=O)c32)nc1 [TP-020n]
[3]
  % of control: 100%

## CC(C)(O)[C@H](F)CN1Cc2cc(NC(=O)c3cnn4cccnc34)c(N3CCOCC3)cc2C1=O
[4]
  % of inhibition: 86.3%

## C=CC(=O)Nc1ccc(C(=O)Nc2[nH]nc3c2CN(C(=O)N[C@H](CN(C)C)c2ccccc2)C3(C)C)cc1
[5]
  % of engagement: 5.7%

## COCC(=O)NC/C=C/c1ccc2ncnc(Nc3ccc(Oc4ccc(C)nc4)c(C)c3)c2c1 [CP-724714]
[6]
  % of control: 100%

## CN(C)C/C=C/C(=O)Nc1ccc(C(=O)N2CCCC(Nc3ncc(Cl)c(-c4c[nH]c5ccccc45)n3)C2)cc1 (stereo not drawn)
[7]
  % of control: 100%

## C=CC(=O)Nc1cc(-n2c(=O)ccc3cnc4ccc(-c5ccc(NS(C)(=O)=O)cc5)cc4c32)ccc1C
[8]; at 1 µM
  % of control: 100%
[8]; at 10 µM
  % of control: 73%

## O[C@H]1CC[C@H](Nc2ncc3nc(Nc4c(F)cc(F)cc4F)n([C@H]4CCOC4)c3n2)CC1
[9]
  % of control: 95%
[10]
  % of control: 100%

## N#Cc1cccc(-c2c[nH]c3ncnc(N4CCOCC4)c23)c1
[11]
  % of inhibition: 7%
[12]
  % of control: 37%
[13]
  % of control: 95%

## Cc1ccc(-c2ccc3c(ccc4sc5c(c43)NC[C@@H](C)NC5=O)n2)cn1
[14]
  % of inhibition: 3%

## CCn1c(-c2nc3cc(C(=O)N4CCCC(N)C4)ccc3n2C)cc2ccccc21 (stereo not drawn)
[15]
  IC50: 250 nM

## C=CC(=O)Nc1cccc(C(=O)Nc2ccc(Nc3cc(-c4[nH]c(SC)nc4C)ccn3)cc2)c1
[16]; at 1 µM
  % of control: 92%
[16]; at 5 µM
  % of control: 78%

— ChEMBL document CHEMBL5465560, “Selectivity Literature for EUbOPEN Chemogenomic Library” (2024)
